How the values were obtained:
[1] = test system: Raw 264.7 cells; experiment: Cytotoxicity test (MTT assay); format: cell-based; conditions: Raw264.7 cells, 24 h, with or without LPS (10 μg/mL), tested concentration range, FIG. 1
Protocol: The effect of the prodrug on the viability of Raw 264.7 cells was determined using the MTT assay. Briefly, Raw 264.7 cells were seeded in 24-well plates. After a 24 h incubation, prodrugs were added to the cells at different concentrations and incubated for 1 h, and then, the cells were treated with or without LPS (10 μg/mL) for another 24 h. Next, 50 μL of MTT solution (5 mg/mL) were added to each well and the cells were incubated for 3 h at 37° C. Then, 1 mL of DMSO were added to dissolve the MTT-formazan crystal. The absorbance at 570 nm and 630 nm were measured. Three replicate wells were used in this experiment.

[2] = test system: LPS-stimulated Raw264.7 cells; experiment: Protein levels of TNF-α, IL-1β and IL-6 by ELISA; format: cell-based; conditions: supernatant, 24 h, dose dependent, FIGS. 3A-3C
Protocol: The protein levels of TNF-α, IL-1β and IL-6 were determined by ELISA. Briefly, Raw 264.7 cells were seeded in 24-well plates. After a 24 h incubation, prodrugs were added to the cells at different concentrations and incubated for 1 h, and then the cells were treated with or without LPS (10 μg/mL) for another 24 h. The supernatants were collected for determination of protein levels according to the ELISA kit's instruction. Three replicate wells were used in this experiment.

[3] = test system: LPS-stimulated Raw 264.7 cells; experiment: NO generation (nitrite in culture supernatant, Griess reagent); format: cell-based; conditions: Raw264.7 cells, LPS 10 μg/mL, 24 h, dose-dependent, FIG. 2
Protocol: Nitrite levels, an index of cellular NO production, in culture supernatants of Raw 264.7 cells were determined using a modified Griess reagent. Briefly, Raw 264.7 cells were seeded in 24-well plates. After a 24 h incubation, prodrugs were added to the cells at different concentrations and incubated for 1 h, and then the cells were treated with or without LPS (10 μg/mL) for another 24 h. The supernatant was mixed with an equal volume of Griess reagent and incubated at room temperature for 15 min. The absorbance at 540 nm was measured. Three replicate wells were used in this experiment.

[4] = test system: LPS-stimulated Raw264.7 cells; experiment: mRNA levels of proinflammatory cytokines by qRT-PCR; format: cell-based; conditions: 24 h, dose dependent, FIGS. 4A-4C
Protocol: […] Briefly, Raw 264.7 cells were seeded in 12-well plates. After a 24 h incubation, prodrugs were added to the cells at different concentrations and incubated for 1 h, and then the cells were treated with or without LPS (10 μg/mL) for another 24 h. qRT-PCR experiments were measured according to the manufacturer's instruction. Three replicate wells were used in this experiment.

[5] = ROS-responsiveness: HPLC monitoring of CAPT-CA degradation in the presence of H2O2; format: physicochemical; conditions: CAPT-CA 160 μM, H2O2 40 mM
Protocol: HPLC spectra of CAPT, CA, CAPT-CA prodrug, and the degradation of CAPT-CA (160 μM) in the presence of H2O2 (40 mM) for different times were obtained. A C18 column was used. The mobile phase A was acetonitrile containing 0.1% TFA and mobile phase B was water containing 0.1% TFA. The elution procedure was shown as below: 0-5 min: 98% B→98% B; 5-15 min: 98% B→40% B; 15-17 min: 40% B→40% B. The flow rate was 1.5 mL/min. The detection wavelength was 220 nm.
To evaluate the ROS-responsiveness of CAPT-CA, high performance liquid chromatography (HPLC) has been employed to monitor the release of CAPT and CA after incubation of CAPT-CA with a ROS reagent (hydrogen peroxide, H2O2). The retention time of free CAPT, free CA and CAPT-CA was at 10.138 min, 13.275 min, 14.283 min, respectively.

prodrug peak in HPLC after incubation with H2O2 (release of free CA and CAPT) ([5]; 4 h): prodrug peak decreases | prodrug peak in HPLC after incubation with H2O2 ([5]; 22 h): almost disappeared
Structure (SMILES): CC(CSC(/C=C/c1ccccc1)SCC(C)C(=O)N1CCCC1C(=O)O)C(=O)N1CCCC1C(=O)O (stereo not drawn) [CAPT-CA]
cytotoxicity of the prodrug [1]: minimal | protein levels of the cytokines (TNF-α, IL-1β, IL-6) [2]: significantly down-regulates | NO generation resulting from LPS stimulation [3]: significantly suppressed | mRNA levels of the cytokines (TNF-α, IL-6, IL-1β) [4]: significantly down-regulates
